Molecular target: T1, IspD (2-C-methyl-D-erythritol 4-phosphate cytidylyltransferase) (Mycolicibacterium smegmatis, UniProt A0R560)
T1 construct: recombinant IspD from pET28a-ispD, His trap purified, approximately 26 kDa
T1 sequence (A0R560 1-222): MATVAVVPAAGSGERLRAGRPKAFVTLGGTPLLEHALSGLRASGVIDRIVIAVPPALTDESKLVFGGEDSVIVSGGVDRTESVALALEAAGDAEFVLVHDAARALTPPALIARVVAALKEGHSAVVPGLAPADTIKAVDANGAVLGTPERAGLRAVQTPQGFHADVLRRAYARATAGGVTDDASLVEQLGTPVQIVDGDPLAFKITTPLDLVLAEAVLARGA
Experiment: ammonium molybdate pyrophosphate absorbance assay; double-reciprocal kinetics
Format: biochemical

SMILES | ammonium molybdate pyrophosphate absorbance assay; double-reciprocal kinetics
C[C@](O)(CO)[C@H](O)COP(=O)(O)O [MEP, 2-C-methyl-D-erythritol 4-phosphate] | indicating that M6 acts as a non-competitive inhibitor of the substrate MEP
Nc1ccn([C@@H]2O[C@H](COP(=O)(O)OP(=O)(O)OP(=O)(O)O)[C@@H](O)[C@H]2O)c(=O)n1 [CTP] | M6 acts as a non-competitive inhibitor of the substrate CTP (Figure 3D)
